Data reported in patent US20250367209A1 (SOUTHERN RESEARCH INSTITUTE, priority 2022, published 2025).
In brackets after ≈: the same amount, converted by molar mass. Read-outs that look alike come from different tables or passages of the source.

Tests used:
Tau-FynSH3 interaction = Tau-FynSH3 interaction (Homo sapiens (Human), UniProt P10636); assay: Tau-FynSH3 AlphaScreen; type: binding
In short: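 Purified GST-Fyn-SH3-Strep and His-tagged human 4R2N Tau-Strep from E. coli, tested by AlphaScreen with glutathione donor and nickel chelate acceptor beads in Bis-Tris pH 7.0, TCEP, casein, Tween-20. Compound preincubated 30 min with first protein at 600 nM, then second protein 30 min, then beads 2 h.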

Solubility = type: physicochemical; settings: for ADME Sol (μM): Table 3
[1] = Metabolic stability in mouse liver microsomes; type: in vitro ADME; settings: mouse, liver microsomes
[2] = Metabolic stability in human liver microsomes; type: in vitro ADME; settings: Table 3, read-out: ADME t1/2 (min): HLMt1/2
Source text: A computational analysis of the top five hits was then completed to assess the physical attributes of the compounds emerging from the HTS. The target profile for drug-like properties included evaluation of molecular weight (MW), total polar surface area (PSA, the surface sum of all polar atoms on the molecule), solubility, metabolic stability, and partition coefficient (LogD). In general, MW<[…] and PSA <70 Å^2 were targeted, which generally allows for blood-brain barrier (BBB) permeability. Compounds with PSA >100 A^2 are generally poor at permeating cell membranes. Solubility was targeted at >10 μM at pH 7.4 and 40-60% of compound remaining after 60 minutes of incubation in mouse or human liver microsomes (an indicator of compound stability after first-pass metabolism). LogD is the log of the ratio of concentrations of a compound in two immiscible solvents at equilibrium. Values ranging from 2-4 were targeted, typical for CNS drugs. Based on these criteria, compound no. 55 was selected as the top hit for optimization. Compound no.

[3] = Oral administration to mice, brain and plasma concentrations; type: in vivo; settings: male CD1 mice; for presence in plasma and brain after oral administration: PO 5 mg/kg, 1, 2 and 4 hours; for brain/plasma ratio: PO 5 mg/kg
Procedure: Compounds were sent to Pharmaron to determine if they were blood-brain barrier permeable. Compounds were formulated to 1 mg/mL in 10% NMP, 60% PEG400, 30% saline, then male CD1 mice were treated PO at 5 mg/kg. Brain and plasma concentrations were measured using HPLC-MS at 1 hour, 2 hours, and 4 hours post-treatment.

[4] = Table 2, Tau-FynSH3 inhibitory activity in the AlphaScreen, read-out: IC50
[5] = Table 3, read-out: Alpha screen IC50
[6] = Table 3, read-out: ADME t1/2 (min): MLMt1/2

Sequence of Tau-FynSH3 interaction (P10636 other isoform, or with tags, fused parts or gaps): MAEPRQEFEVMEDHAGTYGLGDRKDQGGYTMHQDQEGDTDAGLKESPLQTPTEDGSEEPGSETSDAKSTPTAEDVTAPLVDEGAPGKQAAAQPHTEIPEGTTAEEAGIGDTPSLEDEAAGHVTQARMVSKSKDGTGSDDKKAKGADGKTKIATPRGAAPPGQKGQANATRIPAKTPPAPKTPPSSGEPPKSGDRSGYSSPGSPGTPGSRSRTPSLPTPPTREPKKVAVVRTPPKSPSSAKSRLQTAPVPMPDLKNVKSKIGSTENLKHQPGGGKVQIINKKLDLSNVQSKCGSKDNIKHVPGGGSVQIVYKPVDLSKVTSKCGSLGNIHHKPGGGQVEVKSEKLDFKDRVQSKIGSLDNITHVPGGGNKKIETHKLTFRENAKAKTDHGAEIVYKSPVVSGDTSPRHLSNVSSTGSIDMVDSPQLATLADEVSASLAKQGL

SMILES | IC50 (Tau-FynSH3 interaction; [4]) [nM] | IC50 (Tau-FynSH3 interaction; [5]) [nM] | ADME Sol (μM) (Solubility) | half-life [2] [min] | presence in plasma and brain after oral administration [3] | also measured
O=C(CN1CCOc2ccccc21)Nc1nnc(-c2ccccn2)[nH]1 [compound 47, 2-(2,3-DIHYDRO-4H-BENZO[B][1,4]OXAZIN-4-YL)-N-(5-(PYRIDIN-2-YL)-4H-1,2,4-TRIAZOL-3-YL)ACETAMIDE] | 320 | 910 | Sol = 54 μM | 93 |  | Solubility (Solubility; pH 7.4, aqueous buffer, Table 2): 80.2 µM (≈ 27 µg/mL); half-life ([1]; Table 2, read-out: MLM t1/2): 2 min
O=C(CN1C(=O)CSc2cc(F)ccc21)Nc1nnc(-c2ccccn2)[nH]1 [compound no. 12, 2-(7-FLUORO-3-oxo-2H-BENZO[B][1,4]THIAZIN-4(3H)-YL)-N-(5-(PYRIDIN-2-YL)-4H-1,2,4-TRIAZOL-3-YL)ACETAMIDE] | 990 |  | Sol = 41 μM | > 300 | detected in plasma, it did not cross the BBB and was not present in brain | AlphaScreen activity (in words) (Tau-FynSH3 interaction): submicromolar IC50; half-life ([1]; Table 2, read-out: MLM t1/2): 146 min; half-life [1, 6]: 146 min
O=C(CN1C(=O)CSc2cc(Cl)ccc21)Nc1nnc(-c2ccccn2)[nH]1 [compound no. 13, 2-(7-CHLORO-3-OXO-2H-BENZO[B][1,4]THIAZIN-4(3H)-YL)-N-(5-(PYRIDIN-2-YL)-4H-1,2,4-TRIAZOL-3-YL)ACETAMIDE] |  | 930 |  | > 120 |  | 
O=C(CN1C(=O)CSc2cc(F)c(F)cc21)Nc1nnc(-c2ccccn2)[nH]1 [compound no. 14, 2-(6,7-DIFLUORO-3-OXO-2H-BENZO[B][1,4]THIAZIN-4(3H)-YL)-N-(5-(PYRIDIN-2-YL)-4H-1,2,4-TRIAZOL-3-YL)ACETAMIDE] |  | 900 |  | 137 |  | 
O=C(CN1CCSc2ccccc21)Nc1nnc(-c2ccccn2)[nH]1 [compound no. 20, 2-(2H-BENZO[B][1,4]THIAZIN-4(3H)-YL)-N-(5-(PYRIDIN-2-YL)-4H-1,2,4-TRIAZOL-3-YL)ACETAMIDE] | 550 | 552 | Sol = 14 μM | 85 | detected in both plasma and brain | IC50 (Tau-FynSH3 interaction; unit printed as 'M', Table 2 gives 0.55 μM, read-out: IC50, inhibition in the AlphaScreen): 550 nM; half-life [1, 6]: 9 min; brain/plasma ratio [3]: 0.06
Cc1ccc2c(c1)SCC(=O)N2CC(=O)Nc1nnc(-c2ccccn2)[nH]1 [compound no. 23, 2-(7-METHYL-3-OXO-2H-BENZO[B][1,4]THIAZIN-4(3H)-YL)-N-(5-(PYRIDIN-2-YL)-4H-1,2,4-TRIAZOL-3-YL)ACETAMIDE] | 790 |  | Sol = 57 μM | 133 |  | 
O=C(CN1CCCc2ccccc21)Nc1nnc(-c2ccccn2)[nH]1 [compound no. 45, 2-(3,4-DIHYDROQUINOLIN-1(2H)-YL)-N-(5-(PYRIDIN-2-YL)-4H-1,2,4-TRIAZOL-3-YL)ACETAMIDE] | 1250 |  |  | 66 |  | 
O=C(CCN1C(=O)CSc2ccccc21)Nc1nnc(-c2ccccn2)[nH]1 [compound no. 55] | 5000 |  |  |  |  | 
O=C(CN1CCOc2ccccc21)Nc1nnc(-c2ccccn2)[nH]1 [compound no. 69] |  |  |  |  | presence in both plasma and brain | AlphaScreen activity (in words) (Tau-FynSH3 interaction): submicromolar activity; brain/plasma ratio [3]: 0.067
